Like-named read-outs stand apart in the source and are kept apart here.

Data set [1] has as its target T1, porcine pancreatic lipase (Sus scrofa, UniProt P00591).
T1 sequence (P00591 1-450): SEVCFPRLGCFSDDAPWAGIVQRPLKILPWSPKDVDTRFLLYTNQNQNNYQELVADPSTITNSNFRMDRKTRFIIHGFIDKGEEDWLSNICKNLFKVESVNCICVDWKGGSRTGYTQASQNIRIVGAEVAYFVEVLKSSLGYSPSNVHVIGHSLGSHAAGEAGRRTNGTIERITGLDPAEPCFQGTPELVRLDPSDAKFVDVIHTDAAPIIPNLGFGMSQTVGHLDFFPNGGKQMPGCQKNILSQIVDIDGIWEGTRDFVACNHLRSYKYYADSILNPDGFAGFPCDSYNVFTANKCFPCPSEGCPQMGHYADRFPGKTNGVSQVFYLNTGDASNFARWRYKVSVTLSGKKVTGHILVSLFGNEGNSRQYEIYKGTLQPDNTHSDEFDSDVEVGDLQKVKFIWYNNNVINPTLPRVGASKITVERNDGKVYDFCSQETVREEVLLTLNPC
Description: in vitro pancreatic lipase activity test (lipolytic release of p-nitrophenol from p-nitrophenyl palmitate, extinction at 405 nm). It is filed as biochemical. The following applies: read-out: residual lipase activity, relative to the original initial lipolytic activity; for remaining activity at 0.182 µM: test substance concentration 0.182 μM; for remaining activity at 0.091 µM: test substance concentration 0.091 μM. The procedure: In this test the inhibition of the lipolytic action of porcine pancreatic lipase with respect to the test substrate p-nitrophenyl palmitate under the influence of the test substances of Formula I was determined. Therein, the change in the relative extinction of the investigated solutions caused by the lipolytic release of p-nitrophenol from p-nitrophenyl palmitate was measured. The residual activity of the lipase remaining after the addition of the test substances is given in percent, relative to the original initial lipolytic activity. The example numbers quoted relate to the preparation examples given below.
The reagents given below are prepared: • 1. Substrate Solution • For the preparation of a “solution A”, 45 mg p-nitrophenyl palmitate was dissolved in 15 ml isopropanol by sonication with ultrasound. For the preparation of a “solution B” 310 mg Na-deoxycholate dry substance and 150 mg gum arabic were dissolved in 135 ml 0.05 M sodium phosphate buffer (pH=8.0). 5 minutes before the test was performed, 9 ml “solution B” was mixed with 1 ml “solution A” to form a “solution C” and brought to a temperature of 38° C. • 2. Pancreatic Lipase Solution • 100 mg FIP-lipase standard LS7 (porcine pancreatic lipase, 36,700 FIP units/g) were dissolved in 50 ml ice-cold 1%-strength aqueous sodium chloride solution and filtered through a 0.2 μm-syringe filter. After determination of the lipase activity in accordance with FIP, the solution was set to an activity of 40 FIP units/ml with 1%-strength aqueous sodium chloride solution. Dilute pancreatic lipase solutions which had activities of in each case 10, 20 and 30 FIP units/ml were also prepared from the pancreatic lipase solution for a calibration series by diluting with 1%-strength aqueous sodium chloride solution. • 3. Inhibitor Solutions • The lipase-inhibitory compounds of Formula I were dissolved in various concentrations in dimethyl sulfoxide (DMSO), so that between 2.0 and 800 nmol of the inhibitor were present in 100 μl inhibitor solution. Pure DMSO was used to determine the blank reading. Performance of the Test
100 μl of the inhibitor solution of a given concentration prepared as described above was temperature-controlled for 5 minutes in the cell changer of a photometer (Biochrom 4060). Then 1 ml of the above “solution C” was added with stirring. Then the reaction was started by addition of 100 μl pancreatic lipase solution with stirring. 2 minutes after the start of the reaction, the extinction of each sample was detected for 4 minutes at 405 nm.
In each case, in addition to the sample measurement, a calibration series was also measured to determine the lipase activity. […] The calibration series served to determine the lipase activity. To determine the calibration series, the lipase units used were plotted against the extinction values (dE/min) determined in each case. Using these calibration lines and the extinction values determined for the respective incubation batches, the lipase activity can be determined for each sample. […] To determine the blank reading, 100 μl DMSO were mixed with 1 ml “solution C” and the reaction was started by addition of 100 μl of a lipase solution.
The measured value of the photometer per batch (dE/min.) is yielded by the difference in the extinction values after the second and sixth minute (dE) divided by the measuring time (dt=4 min.). The blank reading is determined analogously and then subtracted from the measured value. The residual activity can be read off via the calibration line by means of the dE value calculated in this manner.
In the pancreatic lipase activity test set forth above, the test substances given below each in a concentration (c) of 0.727 μM (unless otherwise stated) caused an inhibition of the lipase activity to the fraction of the original initial activity given below. The compounds of Examples 17, 28, 29, 32, 39, 40, 47, 48, 56, 58 and 59 were measured in a concentration of 0.364 μM each time. […]

[2] abbreviates: substrate p-nitrophenyl palmitate.
The mark [3] stands for this setting: range of examples with mixed concentrations: 0.727 μM unless otherwise stated, Ex. 17, 28, 29, 32, 39, 40, 47, 48, 56, 58, 59 at 0.364 μM, 21, 35, 37, 38, 49, 50, 51, 54, 55, 64 at 0.182 μM, 46, 61, 62, 65 at 0.091 μM.
The mark [4] stands for this setting: test substance concentration (c) 0.727 μM, substrate p-nitrophenyl palmitate.

Turning to `COc1ccc(C(=O)CCCC(=O)C(F)(F)F)cc1CCCCc1ccccc1` [Example 35, 6,6,6-trifluoro-1-[4-methoxy-3-(4-phenylbutyl)phenyl]hexane-1,5-dione], the remaining activity at 0.182 µM in data set [1] (setting [2]) was not above 35%. Regarding `O=C(CCCC(=O)C(F)(F)F)c1ccc2c(c1)CCCC2` [Example 60, 6,6,6-trifluoro-1-(5,6,7,8-tetrahydronaphthalen-2-yl)hexane-1,5-dione], in data set [1] (setting [3]), the remaining activity at 0.727 µM is not above 20%. Usually melting point stands for the temperature, or range, at which the solid turns liquid. The molecule `O=C(CCCCCCCCCCOc1ccccc1)C(F)(F)F` [Example 5, 1,1,1-trifluoro-12-phenoxy-dodecan-2-one] showed a melting point of 47 to 49 °C. Moreover, the remaining activity at 0.727 µM in data set [1] (setting [4]) was not above 60%. For the molecule `O=C(CCCOc1ccc(OCCCc2ccccc2)cc1)C(F)(F)F` [Example 32, 1,1,1-trifluoro-5-[4-(3-phenylpropoxy)phenoxy]pentan-2-one], the melting point fell in the range of 32 to 35 °C. Consider `O=C(CCCCCCCCCc1ccccc1)C(F)(F)F` [Example 8, 1,1,1-trifluoro-11-phenyl-undecan-2-one], for which the remaining activity at 0.727 µM in data set [1] (setting [4]) was not above 60%.

As for `O=C(CCCC(=O)C(F)(F)F)c1ccc(-c2cccc3ccccc23)cc1` [Example 37, 6,6,6-trifluoro-1-[4-(1-naphthyl)phenyl]hexane-1,5-dione], the remaining activity at 0.182 µM in data set [1] (setting [2]) was not above 20%. `CCCCCCCCCCCCCCOc1ccc(C(=O)CCCC(=O)C(F)(F)F)cc1` [Example 65, 6,6,6-trifluoro-1-(4-(tetradecyloxy)phenyl)hexane-1,5-dione] gave a melting point of 63.3 to 65 °C. In addition, the remaining activity at 0.091 µM in data set [1] (setting [2]) was not above 20%.

For the molecule `O=C(CCCC(=O)C(F)(F)F)c1ccc(Br)cc1` [Example 57, 1-(4-bromophenyl)-6,6,6-trifluorohexane-1,5-dione], the remaining activity at 0.727 µM in data set [1] (setting [4]) is not above 35%. For the molecule `O=C(CCCC(=O)C(F)(F)F)c1ccc(-c2ccc3ccccc3c2)cc1` [Example 62, 6,6,6-trifluoro-1-(4-(2-naphthyl)phenyl)hexane-1,5-dione], in data set [1] (setting [3]), the remaining activity at 0.727 µM was not above 20%. Besides, the remaining activity at 0.091 µM in data set [1] (setting [2]) was not above 60%.

Turning to `COc1ccc(C(=O)C(CCCCOc2ccccc2)CCC(=O)C(F)(F)F)cc1` (stereo not shown) [Example 38, 6,6,6-trifluoro-1-(4-methoxyphenyl)-2-(4-phenoxybutyl)hexane-1,5-dione], the remaining activity at 0.182 µM in data set [1] (setting [2]) is not above 20%. `CCCCCCCCCCCCCCCCOc1ccc(C(=O)CCCC(=O)C(F)(F)F)cc1` [Example 63, 6,6,6-trifluoro-1-(4-(hexadecyloxy)phenyl)hexane-1,5-dione] had a melting point of 67.7 to 68.9 °C.

In turn, `O=C(CCCC(=O)C(F)(F)F)c1ccc(OCCCc2ccccc2)cc1` [Example 55, 6,6,6-trifluoro-1-(4-(3-phenylpropoxy)phenyl)hexane-1,5-dione] displayed a melting point of 52.6 to 54.5 °C. In data set [1] (setting [3]), the remaining activity at 0.727 µM was not above 60%. For the same molecule, in data set [1] (setting [2]), the remaining activity at 0.182 µM is not above 35%.

As for `O=C(CCCC(=O)C(F)(F)F)c1ccc(OCCCCOc2ccccc2)cc1` [Example 54, 6,6,6-trifluoro-1-(4-(4-phenoxybutoxy)phenyl)hexane-1,5-dione], the melting point is 78.8 to 80.4 °C. Further, in data set [1] (setting [3]), the remaining activity at 0.727 µM was not above 60%. For the same molecule, in data set [1] (setting [2]), the remaining activity at 0.182 µM was not above 35%. On to `O=C(CCCC(=O)C(F)(F)F)c1cccc(OCc2ccccc2)c1` [Example 34, 6,6,6-trifluoro-1-(3-benzyloxyphenyl)hexane-1,5-dione], for which the remaining activity at 0.727 µM in data set [1] (setting [4]) is not above 20%. As for `COc1ccc(CCCC(=O)C(F)(F)F)cc1` [Example 11, 5-(4-methoxyphenyl)-1,1,1-trifluoropentan-2-one], in data set [1] (setting [4]), the remaining activity at 0.727 µM was not above 60%.
